From patent publication US20240408033A1, “CELL-DERIVED NANOVESICLES FOR IN VIVO TRANSPORT AND DELIVERY OF THERAPEUTIC MATERIALS” (The Board of Trustees of the Leland Stanford Junior …, priority 2021, published 2024)

Test system: GL-26 GBM cells
Assay: PI staining-based apoptosis FACS analysis, GL-26 cells
Conditions: TMZ at 250 μM, alone or with mpEVs (50 pmol)
Text: We evaluated the therapeutic potential of miRNA-loaded mpEVs (50 pmol) in GL-26 cells in combination with TMZ and quantified the chemosensitizing effects of the miRNA-loaded mpEVs using PI staining-based FACS analysis (FIG. 13).
To investigate the chemosensitizing effect of miRNAs-loaded mpEVs in the absence and presence of TMZ at different concentrations, we seeded the U87 glioma cells at a density of 1×10^5 cells per well in 12-well plates. Next, we treated the cells with mpEVs from control and CXCR4-NSCs with and without loaded miRNAs. On the following day, we treated the cells with TMZ at different concentrations (0 μM, 250 μM, and 500 μM) for each kind of EV. At 24 h after TMZ administration, we collected the cells and fixed in ice cold 70% ethanol at −20° C. for 30 min. We then washed the fixed cells once with 2 ml of PBS and stained with PI (15 nM) in the presence of RNase A (10 mg/ml) and 0.01% Triton-X100 (Life Technologies, Grand Island, NY, USA). […] Likewise, the chemosensitizing effect of miRNA loaded mpEVs for TMZ therapy was also investigated against GL26 cells by using a similar procedure.

`Cn1nnc2c(C(N)=O)ncn2c1=O` [TMZ, temozolomide] showed an apoptotic cells of 13.9%.
